The source of these data is US12662483B2, “Cocrystalline forms of FGFR3 inhibitors” (Eli Lilly and Company, priority 2022, dated 2026).

In one data set the target is T1, FGFR3 protein (Homo sapiens, UniProt P22607).
T1 construct: purchased Reaction Biology 1068
The experiment in a line: FGFR3 enzyme assay (KinEASE-TK HTRF). It counts as biochemical. As to conditions: at Km ATP, 0.25 nM enzyme. The protocol:
Enzyme activity was monitored using the KinEASE™-TK Assay Kit (CisBio, Cat. No. 62TK0PEC) according to the manufacturer's instructions. All assays were performed at the respective KmATP for each kinase in KinEASE™ Kinase Buffer.
Titration of Isomers 1, 2, and A were performed in a half-log manner in 100% dimethyl sulfoxide (DMSO) starting at 1 uM. Prior to the initiation of the reaction by adenosine triphosphate (ATP), FGFR1 protein and Isomers 1, 2, and A were pre-incubated for 15 minutes at room temperature, and FGFR3 protein and Isomers 1, 2, and A were pre-incubated on ice for 15 minutes. Reactions proceeded for 30 min at 30° C. Plates were quenched by the addition of the Anti-TK cryptate antibody/Streptavidin-XL665 mixture.
Ratios were converted to a percent of control (POC) using a ratiometric emission factor. One hundred POC was determined using no test compound, and 0 POC was determined in the presence of 1 uM of an appropriate control inhibitor. A 4-parameter logistic curve was fit to the POC values as a function of the concentration of Isomers 1, 2, and A, and the IC50 value was the point where the best fit curve crossed 50 POC.
Background: TR-FRET usually uses a lanthanide donor and a delayed reading to cut background.

Data set [1] in a line: Solubility in aqueous and biorelevant media (HPLC of supernatant). To be noted: for solubility at 24 h: thermodynamic from solid.
Description: Samples of Isomer 2 IPMC SDD, Isomer 2 HPMC-AS-M SDD, Isomer 2 PVP-VA SDD, and the cocrystalline form of Formula I or Formula II were centrifuged.
Data set [2] can be described thus: Dynamic vapor sorption (DVS). Format: physicochemical. To be noted: 25° C. The method, then: Dynamic vapor sorption (DVS) analysis is obtained at 25° C. using a TA Instruments Q5000SA VTI flow moisture balance running TA Thermal Advantage, v5.2.6 and Universal Analysis 2000, v4.5a Software. The equilibrium criterion was <0.01% weight change in 5 minutes for a maximum of 60 minutes. Humidity verification calibration was performed with sodium bromide. The weight calibration was performed with manufacturer-supplied standards.
A prepared sample of the cocrystalline form of Formula I is characterized by dynamic vapor sorption as having a range of water content from about 1% at 0% RH to about 3.2% at 90% RH.

A short description of data set [3]: Solid state stability at 40° C./75% RH, caps off. It counts as physicochemical. As to conditions: 40° C. and 75% relative humidity.
[4] abbreviates: fasted simulated intestinal fluid.

Structures are written as SMILES. ≈ marks a conversion by molar mass, not a printed value.

T1 sequence (P22607 23-806): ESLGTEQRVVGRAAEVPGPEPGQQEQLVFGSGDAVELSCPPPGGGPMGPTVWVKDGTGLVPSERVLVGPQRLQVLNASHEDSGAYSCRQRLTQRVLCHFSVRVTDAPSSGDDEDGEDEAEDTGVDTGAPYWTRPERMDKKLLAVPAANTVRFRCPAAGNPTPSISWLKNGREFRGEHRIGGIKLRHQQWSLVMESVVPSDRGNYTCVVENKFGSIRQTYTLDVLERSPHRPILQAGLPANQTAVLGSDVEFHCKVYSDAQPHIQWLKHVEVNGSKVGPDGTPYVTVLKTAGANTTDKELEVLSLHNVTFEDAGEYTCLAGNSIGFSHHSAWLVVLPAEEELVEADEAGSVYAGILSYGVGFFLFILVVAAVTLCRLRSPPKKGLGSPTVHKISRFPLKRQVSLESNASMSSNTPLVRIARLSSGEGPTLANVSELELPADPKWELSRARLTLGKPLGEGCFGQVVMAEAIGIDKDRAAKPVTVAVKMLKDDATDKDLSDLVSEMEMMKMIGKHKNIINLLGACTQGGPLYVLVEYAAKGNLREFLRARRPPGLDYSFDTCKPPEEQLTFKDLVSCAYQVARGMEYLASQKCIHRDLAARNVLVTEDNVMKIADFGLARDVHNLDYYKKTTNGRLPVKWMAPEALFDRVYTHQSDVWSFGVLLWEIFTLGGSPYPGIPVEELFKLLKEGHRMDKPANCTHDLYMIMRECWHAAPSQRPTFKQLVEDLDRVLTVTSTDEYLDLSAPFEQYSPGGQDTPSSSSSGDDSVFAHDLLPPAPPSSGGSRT

By IC50 is commonly meant the midpoint of a concentration-inhibition curve. Lower therefore signals higher potency. For `Cc1c(-c2cc(O[C@H](CO)c3ccccn3)c3c(Cl)cnn3c2)nnn1C1CCN(C#N)CC1` [Isomer A, 4-[4-[3-chloro-4-[2-hydroxy-1-(2-pyridyl)ethoxy]pyrazolo[1,5-a]pyridin-6-yl]-5-methyl-triazol-1-yl]piperidine-1-carbonitrile, Isomer 1], on FGFR3 protein, the half-inhibitory concentration (IC50) was under 50 nM.

A word on the solubility: it is the concentration that dissolves in the medium under given conditions. A high value points to much dissolved substance. With `Cc1c(-c2cc(O[C@H](CO)c3ccc(F)cn3)c3c(Cl)cnn3c2)nnn1C1CCN(C#N)CC1` [Isomer 2, 4-[4-[3-chloro-4-[1-(5-fluoro-2-pyridyl)-2-hydroxy-ethoxy]pyrazolo[1,5-a]pyridin-6-yl]-5-methyl-triazol-1-yl]piperidine-1-carbonitrile, Isomer 2], the solubility at 24 h was 7 µg/mL (≈ 14.1 µM) in data set [1] (0.01N aqueous HCl, simulated gastric fluid); 12 µg/mL (≈ 24.1 µM) in data set [1] (0.1N aqueous HCl, simulated gastric fluid); 6 µg/mL (≈ 12.1 µM) in data set [1] (acetate buffer USP, pH 4.5, aqueous buffer); 6 µg/mL (≈ 12.1 µM) in data set [1] (phosphate buffer USP, pH 6, aqueous buffer); 5 µg/mL (≈ 10.1 µM) in data set [1] (phosphate buffer USP, pH 7.5, aqueous buffer); 47 µg/mL (≈ 94.6 µM) in data set [1] (simulated gastric fluid). Besides, the solubility at 24 h in data set [1] (simulated intestinal fluid (fasted), fassif) is 10 µg/mL (≈ 20.1 µM); in data set [1] (simulated intestinal fluid (fed), fessif), 38 µg/mL (≈ 76.5 µM); in data set [1] (water), 6 µg/mL (≈ 12.1 µM).

In the case of `Cc1c(-c2cc(O[C@H](CO)c3ccc(F)cn3)c3c(Cl)cnn3c2)nnn1C1CCN(C#N)CC1` (single isomer, unassigned; isomer 2) [cocrystalline form of Formula I, 4-[4-[3-Chloro-4-[1-(5-fluoro-2-pyridyl)-2-hydroxy-ethoxy]pyrazolo[1,5-a]pyridin-6-yl]-5-methyl-triazol-1-yl]piperidine-1-carbonitrile, Isomer 2, Hemi-Gallic Acid Cocrystalline Form, Hemihydrate], the “water content by dynamic vapor sorption” value in data set [2] (0% RH) is “about 1%”. In addition, the “water content by dynamic vapor sorption” value in data set [2] (90% RH) is listed as “about 3.2%”. In addition, in data set [3], the “stability relative to SDD formulations of Isomer 2 (IPMC, HPMC-AS-M, PVP-VA)” value is “more stable”. Also, in data set [1] (setting [4]), the “solubility relative to Isomer 2 with IPMC SDD” value is “about two to about three times more soluble” and the “solubility relative to freebase form of Isomer 2” value is given as “about four to about five times more soluble”.
